# According to patent US5055485A, “Inactivation of viruses in cell- and protein-containing compositions using aryl diol epoxides” (New York Blood Center, Inc., priority 1988, dated 1991):
# Like-named read-outs stand apart in the source and are kept apart here.
# Legend:
# [1] = system: Vesicular stomatitis virus (VSV); assay type: cell-based
# VSV [2] = assay type: cell-based, vesicular stomatitis virus
# VSV [3] = experiment: microbe, parasite or virus in culture; assay type: cell-based; settings: Vesicular stomatitis virus, A549, read-out: virus kill (cell-associated VSV)
# VSV [4] = experiment: microbe, parasite or virus in culture; assay type: cell-based, vesicular stomatitis virus; settings: for log reduction at 10 µM: Vesicular stomatitis virus, 6 h
# Anti-HBsAg = experiment: Plasma protein functional activity: Anti-HBsAg titer; assay type: biochemical; settings: human plasma, 10 μm, 6 hours, 24° C.
# Fibrinogen = experiment: Plasma protein functional activity: fibrinogen clottability; assay type: biochemical; settings: human plasma, 10 μm, 6 hours, 24° C.
# AHF = experiment: Plasma protein functional activity: AHF; assay type: biochemical; settings: human plasma, 10 μm, 6 hours, 24° C.
# Factor IX = experiment: Plasma protein functional activity: Factor IX; assay type: biochemical; settings: human plasma, 10 μm, 6 hours, 24° C.
# Haptoglobin = experiment: Plasma protein: haptoglobin; assay type: biochemical; settings: human plasma, 10 μm, 6 hours, 24° C.
# selected plasma proteins = experiment: Functional activity of selected plasma proteins, overall; assay type: biochemical; settings: human plasma, 10 μm, 6 hours, 24° C.
# [5] = Solubility in aqueous media / water; assay type: physicochemical
# [6] = Hydrolysis in aqueous medium; assay type: physicochemical; settings: iscove's medium 10% fbs; Iscove's medium containing 10% fetal bovine serum
# [7] = system: washed human red blood cells; experiment: Red cell structural and functional integrity; settings: conditions of Example 2
# factor VIII = settings: background art; cited from earlier work
# [8] = system: proteinaceous components of the plasma; settings: background art; cited from earlier work
# [9] = background art; cited from earlier work
# DNA = settings: background art; cited from earlier work
# viruses = settings: background art; cited from earlier work
compound,measurement,setting,value
"O[C@H]1[C@H]2O[C@H]2c2c(cc3ccc4cccc5ccc2c3c45)[C@@H]1O (relative stereo) [BAPDE, trans-7,8-dihydroxy [anti] 9,10 epoxy-7,8,9,10-tetrahydro benzo[a]pyrene]",virus inactivated,[1],> 5 logs
same,VSV inactivation in the presence of red cells (in words),VSV [2],reduced in the presence of red cells
same,virus titer reduction,VSV [2],at least 3 logs
same,log reduction at 3 µM,VSV [3],> 5.5
same,VSV Infectivity following treatment with BAPDE,VSV [4],< -0.5
same,log reduction at 10 µM,VSV [4]; read-out: virus inactivation,> 4.5
same,log reduction at 10 µM,VSV [4]; read-out: VSV Infectivity change: log10 Kill,> 4.6
same,Anti-HBsAg Recovery (%),Anti-HBsAg,110%
same,Anti-HBsAg following treatment with BAPDE,Anti-HBsAg; no treatment 0.50,0.55 titer
same,Fibrinogen clottability Recovery (%),Fibrinogen,100%
same,Fibrinogen clottability following treatment with BAPDE,Fibrinogen; no treatment clottable,clottable
same,AHF Recovery (%),AHF,79%
same,AHF following treatment with BAPDE,AHF; no treatment 0.70,0.55 units/ml
same,Factor IX Recovery (%),Factor IX,100%
same,Factor IX following treatment with BAPDE,Factor IX; no treatment 0.9,0.9 units/ml
same,Haptoglobin Recovery (%),Haptoglobin,97%
same,Haptoglobin following treatment with BAPDE,Haptoglobin; no treatment 175,170 mg/dL
same,loss of protein functional activity (in words),selected plasma proteins,without significant loss of protein functional activity
same,solubility,[5],1 to 10 µM
same,half-life,[6],~30 min
same,toxicity to A549 cells,A549 cells,"Neither BAPDE nor the solvent in which it was dissolved (e.g., tetrahydroturan) were toxic to A549 cells"
same,"2,3 diphosphoglycerate levels",[7],within the normal range
same,ATP levels,[7],within the normal range
same,Red cell structural and functional integrity,[7],not compromised
same,hemoglobin content,[7],within the normal range
same,osmotic fragility,[7],within the normal range
"O=C1CCO1 [Beta-propiolactone, beta-propiolactone]",loss of factor VIII content of plasma,factor VIII,more than half of the factor VIII content of plasma is lost
same,denaturation of plasma proteins,[8],substantially denaturate valuable plasma proteins
CN(C)c1ccc2cc3ccc(N(C)C)cc3nc2c1 [acridine orange],water solubility (in words),[9],water soluble
same,binding to DNA,DNA,bind extremely well to DNA
C=O [formaldehyde],denaturation of plasma proteins,[8],denatured the valuable proteinaceous components of the plasma
O=CCCCC=O [glutaraldehyde],denaturation of plasma proteins,[8],denatured the valuable proteinaceous components of the plasma
same,viral inactivation and effect on cells (in words),viruses,"inactivates viral infectivity, but fixes cells"
Nc1ccc2cc3ccc(N)cc3nc2c1 [proflavin],water solubility (in words),[9],water soluble
same,binding to DNA,DNA,bind extremely well to DNA
OCl [sodium hypochlorite],denaturation of plasma proteins,[8],denatured the valuable proteinaceous components of the plasma
